A word on the IC50: it is the concentration needed to halve the response being measured. Low readings indicate inhibition by little substance, high ones a need for much substance.

Consider three compounds from patent publication US8030547B2, “Gene coding for acetolactate synthase” (priority 2002, dated 2011).

Common to all, as to format: biochemical, rice (Oryza sativa var. Kinmaze)
Assay [1] deals with T1, GST fusion R172S mutant ALS protein (Oryza sativa subsp. japonica, UniProt Q6K2E8, R172S).
T1 construct: an expression vector having the full-length wild type ALS cDNA incorporated into the Eco RI site of pGEX-2T; made in house; host or cells: E. coli JM109, pGEX-2T(ALS R172S mutant); crude supernatant
The assay can be described thus: Herbicide sensitivity of ALS protein expressed in E. coli (crude enzyme solution), R172S. As to conditions: for RS ratio: R172S mutant vs wild type. As for the experimental part:
(§1) ALS activity resulting from the mutant ALS protein contained in the eluted fractions apportioned into each test tube for apportioning was measured as follows. A reaction solution to be used in a measurement reaction was prepared by mixing an eluted fraction to be measured with a solution comprising 20 mM sodium pyruvate, 0.5 mM TPP, 0.5 mM MgCl2, 10 μM FAD and 20 mM potassium phosphate buffer (pH 7.5). One ml of this reaction solution was used. After the eluted fraction to be measured was added, the measurement reaction was performed at 30° C. for 40 to 60 minutes. Then, the reaction was stopped by addition of 0.1 ml of 6N sulfuric acid (or 0.25 N sodium hydroxide).
(§2) After the reaction was stopped, the reaction solution was incubated at 60° C. for 10 minutes, thereby converting acetolactate contained in the reaction solution to acetoin.
(§3) Then, to quantify acetoin contained in the reaction solution, 1 ml of 0.5% (w/v) creatine and 1 ml of 5% (w/v) α-naphthol dissolved in 2.5 N sodium hydroxide was added to the reaction solution, followed by incubation at 37° C. for 10 minutes. Acetoin was then quantified by color comparison of the absorbance (at 525 nm) of the reaction solution, thereby evaluating ALS activity. In addition, since the reaction solution contained a small amount of sodium pyruvate, reaction time 0 was used as control.
(§4) E. coli transformed with pGEX-2T(ALS-wild) constructed in Example 3(5), E. coli transformed with pGEX-2T(ALS-W548L mutant) constructed in Example 5, E. coli transformed with pGEX-2T(ALS-S627I mutant) constructed in Example 5, E. coli transformed with pGEX-2T(ALS P171H mutant) constructed in Example 6, E. coli transformed with pGEX-2T(ALS R172S mutant) constructed in Example 6, E. coli transformed with pGEX-2T(ALS P171H, R172S mutant) constructed in Example 7, E. coli transformed with pGEX-2T(ALS-P171H, W548L mutant) constructed in Example 8, E. coli transformed with pGEX-2T(ALS-P171H, S627I mutant) constructed in Example 8, and E. coli transformed with pGEX-2T(ALS-P171H, W548L, S627I mutant) constructed in Example 9 were respectively shake-cultured (pre-culture) at 27° C. in 2 ml of LB liquid medium containing ampicillin. These types of E. coli were respectively cultured in 250 ml of LB liquid medium containing ampicillin using 1 ml of the pre-culture solution. After culturing overnight, 1 mM IPTG was added to the media, and then culturing was performed for a further 3 to 4 hours, so that the expression of GST fusion protein was induced. In addition, the cells were stored at −80° C. after washing.
(§5) Preparation and purification of ALS from E. coli were performed by the following method. First, the pellet of the transformant E. coli stored at −80° C. was suspended in ALS extraction buffer (potassium phosphate buffer (pH 7.5) containing 30% glycerol and 0.5 mM MgCl2). Specifically, 2.5 ml of the buffer was added to the pellet obtained from 50 ml of the culture solution. The suspension was subjected to ultrasonication (Heat Systems-Ultrasonics, Sonicator W-225R, micro chip, output control 8, interval of approximately 1 second, twice (40 seconds each)), and subjected to centrifugation at 15000×g, 4° C. for 20 minutes, thereby obtaining the supernatant as a crude enzyme solution.
(§6) Herbicide sensitivity of the wild type ALS protein and that of mutant ALS protein were examined using the 9 types of crude enzyme solutions obtained in Example 10. Herbicide sensitivity test was performed according to procedures almost the same as those in Example 2. However, in this example, reaction temperature was 37° C., reaction time was 30 minutes, and 10 mM valine was added to the reaction solution to inhibit ALS activity derived from E. coli. Further, three types of herbicides, bispyribac-sodium, pyrithiobac-sodium, and pyriminobac, were used as PC herbicides; chlorsulfuron was used as a sulfonylurea herbicide; and imazaquin was used as an imidazolinon herbicide. […]

Assay [2] addresses T2, GST fusion W548L mutant ALS protein (Oryza sativa subsp. japonica, UniProt Q6K2E8, W548L).
T2 construct: an expression vector having the full-length wild type ALS cDNA incorporated into the Eco RI site of pGEX-2T; made in house; host or cells: E. coli JM109, pGEX 2T(ALS-W548L mutant); crude supernatant
The assay can be described thus: Herbicide sensitivity of ALS protein expressed in E. coli (crude enzyme solution), W548L. Particulars: for RS ratio: W548L mutant vs wild type. As to the method:
as §1, §2, §3, §4, §5, §6

Assay [3] has as its target T3, GST fusion P171H/R172S mutant ALS protein (Oryza sativa subsp. japonica, UniProt Q6K2E8, P171H/R172S).
T3 construct: made in house; host or cells: E. coli JM109, pGEX-2T(ALS P171H, R172S mutant); crude supernatant
The assay can be described thus: Herbicide sensitivity of ALS protein expressed in E. coli (crude enzyme solution), P171H/R172S. As to conditions: for RS ratio/ predicted RS ratio / Predicted RS ratio: P171H/R172S mutant; for RS ratio: P171H/R172S mutant vs wild type; for Predicted RS ratio: product of RS ratios of the 1-point mutants. As to the method:
as §1, §2, §3, §4, §5, §6

The target in assay [4] is T4, GST fusion P171H/W548L/S627I mutant ALS protein (Oryza sativa subsp. japonica, UniProt Q6K2E8, P171H/S627I/W548L).
T4 construct: made in house; host or cells: E. coli, pGEX-2T(ALS-P171H, W548L, S627I mutant); crude supernatant
The assay can be described thus: Herbicide sensitivity of ALS protein expressed in E. coli (crude enzyme solution), P171H/W548L/S627I. Particulars: for RS ratio/ predicted RS ratio / Predicted RS ratio: P171H/W548L/S627I mutant; for RS ratio: P171H/W548L/S627I mutant vs wild type; for Predicted RS ratio: product of RS ratios of the 1-point mutants. As to the method: as §1, §2, §3, §4, §5, §6

Where [5] appears, read: read-out: inhibition % at the highest concentration among the concentrations tested.

Values joined by “and” are separate entries in the source; they are usually repeats but may differ in a detail not shown here. Equal entries are not always repeated.

T2 sequence (Q6K2E8 44-644 W548L): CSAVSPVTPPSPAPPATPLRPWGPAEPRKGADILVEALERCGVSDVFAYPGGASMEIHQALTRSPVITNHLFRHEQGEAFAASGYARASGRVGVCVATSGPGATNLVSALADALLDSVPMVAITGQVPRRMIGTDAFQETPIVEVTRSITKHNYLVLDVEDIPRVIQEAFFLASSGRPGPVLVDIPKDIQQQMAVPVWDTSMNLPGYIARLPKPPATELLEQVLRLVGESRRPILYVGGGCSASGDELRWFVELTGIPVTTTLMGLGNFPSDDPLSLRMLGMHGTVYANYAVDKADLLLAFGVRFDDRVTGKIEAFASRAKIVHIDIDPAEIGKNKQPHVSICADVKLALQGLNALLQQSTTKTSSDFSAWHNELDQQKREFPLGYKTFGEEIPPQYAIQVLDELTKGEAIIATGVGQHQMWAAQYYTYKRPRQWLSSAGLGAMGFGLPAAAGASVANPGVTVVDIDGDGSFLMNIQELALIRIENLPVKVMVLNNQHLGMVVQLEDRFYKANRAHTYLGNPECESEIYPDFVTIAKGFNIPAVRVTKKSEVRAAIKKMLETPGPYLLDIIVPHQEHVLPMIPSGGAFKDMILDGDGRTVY
T4 sequence (Q6K2E8 44-644 P171H/W548L/S627I): as the sequence (Q6K2E8 44-644 W548L) above, with P128H, S584I counted along it
T3 sequence (Q6K2E8 44-644 P171H/R172S): as the sequence (Q6K2E8 44-644 W548L) above, with P128H, R129S, L505W counted along it
T1 sequence (Q6K2E8 44-644 R172S): as the sequence (Q6K2E8 44-644 W548L) above, with R129S, L505W counted along it

For `COc1cc(OC)nc(Oc2cccc(Oc3nc(OC)cc(OC)n3)c2C(=O)O)n1` [bispyribac-sodium], in assay [1], inhibition was half-maximal at 0.0062 µM (IC50) and the RS ratio is on record as 0.98. In assay [2], the IC50 turned out to be 3.3 µM and the RS ratio amounted to 520. In assay [3], half-maximal inhibition (IC50) was put at 0.048 µM, the “RS ratio/ predicted RS ratio” value is reported as 0.89, the RS ratio is on record as 7.6 and the “Predicted RS ratio” value is 8.5. Moreover, in assay [4], the “RS ratio/ predicted RS ratio” value was more than 0.084, the RS ratio is given as more than 16000 and the “Predicted RS ratio” value was 190000. In addition, in assay [4] (setting [5]), the inhibition at 100 µM is 1.1%.
For the compound `COc1nc(C)nc(NC(=O)NS(=O)(=O)c2ccccc2Cl)n1` [chlorsulfuron], the results for the half-maximal inhibitory concentration (IC50) in assay [1], in assay [2] and in assay [3] were 0.011 µM, 9.9 µM and 5.5 µM, respectively. Also, the RS ratio in assay [1] is 0.85; in assay [2], 760; in assay [3] it was 420. Besides, the “RS ratio/ predicted RS ratio” value in assay [3] is recorded as 5.8; in assay [4] it was more than 0.24. Further, the “Predicted RS ratio” value is listed as 72 in assay [3] and 160000 in assay [4]. Moreover, in assay [4] (setting [5]), the inhibition at 500 µM was 30%.
As to `CC(C)C1(C)N=C(c2nc3ccccc3cc2C(=O)O)NC1=O` (stereo not shown) [imazaquin], the 50% inhibitory concentration (IC50) in assay [1] turned out to be 2.3 µM; in assay [3], 3.9 µM. The RS ratio in assay [1] is 0.98 and 1; in assay [2], more than 45; in assay [3] it was 1.8; in assay [4] it was more than 45. Also, the inhibition at 100 µM in assay [2] (read-out: inhibition % at the highest concentration among the concentrations tested, W548L mutant, in 100 μM) was 14%; in assay [4] (setting [5]), 15%. In addition, the “RS ratio/ predicted RS ratio” value in assay [3] is on record as 1.2. Moreover, the “Predicted RS ratio” value in assay [3] was 1.5; in assay [4], more than 460.
